Measurements as given in ChEMBL document CHEMBL1155439, “Transient receptor potential ankyrin 1 (TRPA1) channel as emerging target for novel analgesics and anti-inflammatory agents” (J Med Chem, 2010).

Tests used:
[1] = target: Transient receptor potential cation channel subfamily M member 8 (Homo sapiens, UniProt Q7Z2W7); assay: Antagonist activity at human TRPM8 channel; format: functional
[2] = target: Transient receptor potential cation channel subfamily V member 4 (Homo sapiens, UniProt Q9HBA0); assay: Antagonist activity at human TRPV4 channel; format: functional
[3] = target: T1, Transient receptor potential cation channel subfamily V member 3 (Homo sapiens, UniProt Q8NET8); assay: Antagonist activity at human TRPV3 channel; format: functional
T1 sequence (Q8NET8 whole entry): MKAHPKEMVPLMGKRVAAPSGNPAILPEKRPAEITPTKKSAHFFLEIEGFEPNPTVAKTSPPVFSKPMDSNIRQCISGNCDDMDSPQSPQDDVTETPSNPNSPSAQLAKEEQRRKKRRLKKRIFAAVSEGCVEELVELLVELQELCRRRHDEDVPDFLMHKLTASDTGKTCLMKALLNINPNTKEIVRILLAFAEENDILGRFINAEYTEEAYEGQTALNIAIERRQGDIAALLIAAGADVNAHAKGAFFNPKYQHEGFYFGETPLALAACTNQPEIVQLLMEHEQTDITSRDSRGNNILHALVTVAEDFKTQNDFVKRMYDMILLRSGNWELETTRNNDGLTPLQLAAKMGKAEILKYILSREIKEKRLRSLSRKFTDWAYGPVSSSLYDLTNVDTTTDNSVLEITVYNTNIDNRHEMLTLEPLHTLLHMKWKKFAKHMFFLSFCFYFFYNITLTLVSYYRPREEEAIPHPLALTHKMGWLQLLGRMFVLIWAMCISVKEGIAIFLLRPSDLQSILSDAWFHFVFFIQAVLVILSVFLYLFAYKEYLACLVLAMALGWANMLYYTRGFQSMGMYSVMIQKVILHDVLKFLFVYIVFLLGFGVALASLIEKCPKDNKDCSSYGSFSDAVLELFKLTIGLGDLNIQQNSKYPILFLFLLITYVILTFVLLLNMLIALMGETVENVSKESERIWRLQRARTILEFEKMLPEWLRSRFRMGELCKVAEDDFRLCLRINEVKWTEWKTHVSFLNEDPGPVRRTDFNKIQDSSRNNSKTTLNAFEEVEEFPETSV

[4] = target: Transient receptor potential cation channel subfamily V member 1 (Homo sapiens, UniProt Q8NER1); assay: Antagonist activity at human TRPV1 channel; format: functional
[5] = target: T2, Transient receptor potential cation channel subfamily A member 1 (Homo sapiens, UniProt O75762); assay: Antagonist activity at human TRPA1 channel assessed as inhibition of nifedipine-induced intracellular calcium influx; format: functional, cell-based
[6] = target: T3, Transient receptor potential cation channel subfamily A member 1 (Mus musculus, UniProt Q8BLA8); assay: Activation of mouse TRPA1 channel
[7] = target: T2, Transient receptor potential cation channel subfamily A member 1; assay: Antagonist activity at human TRPA1 channel assessed as inhibition of allyl isothiocyanate-induced intracellular calcium influx; format: functional, cell-based
[8] = target: T2, Transient receptor potential cation channel subfamily A member 1; assay: Antagonist activity at human TRPA1 channel assessed as inhibition of formalin-induced intracellular calcium influx; format: functional, cell-based
[9] = target: T2, Transient receptor potential cation channel subfamily A member 1; assay: Antagonist activity at human TRPA1 channel expressed in HEK293 cells assessed as inhibition of cinnamaldehyde-induced intracellular calcium influx by FLIPR; format: functional, cell-based
[10] = target: T2, Transient receptor potential cation channel subfamily A member 1; assay: Antagonist activity at human TRPA1 channel expressed in HEK293 cells assessed as inhibition of allyl isothiocyanate-induced intracellular calcium influx by FLIPR; format: functional, cell-based
[11] = target: T2, Transient receptor potential cation channel subfamily A member 1; assay: Antagonist activity at human TRPA1 channel assessed as inhibition of 4-hydroxy-2-nonenal-induced response; format: functional
[12] = target: T3, Transient receptor potential cation channel subfamily A member 1; assay: Antagonist activity at mouse TRPA1 channel expressed in CHO cells assessed as inhibition of cinnamaldehyde-induced intracellular calcium influx
[13] = target: T2, Transient receptor potential cation channel subfamily A member 1; assay: Antagonist activity at human TRPA1 channel expressed in CHO cells assessed as inhibition of cinnamaldehyde-induced intracellular calcium influx; format: functional, cell-based

T2 sequence (O75762 whole entry): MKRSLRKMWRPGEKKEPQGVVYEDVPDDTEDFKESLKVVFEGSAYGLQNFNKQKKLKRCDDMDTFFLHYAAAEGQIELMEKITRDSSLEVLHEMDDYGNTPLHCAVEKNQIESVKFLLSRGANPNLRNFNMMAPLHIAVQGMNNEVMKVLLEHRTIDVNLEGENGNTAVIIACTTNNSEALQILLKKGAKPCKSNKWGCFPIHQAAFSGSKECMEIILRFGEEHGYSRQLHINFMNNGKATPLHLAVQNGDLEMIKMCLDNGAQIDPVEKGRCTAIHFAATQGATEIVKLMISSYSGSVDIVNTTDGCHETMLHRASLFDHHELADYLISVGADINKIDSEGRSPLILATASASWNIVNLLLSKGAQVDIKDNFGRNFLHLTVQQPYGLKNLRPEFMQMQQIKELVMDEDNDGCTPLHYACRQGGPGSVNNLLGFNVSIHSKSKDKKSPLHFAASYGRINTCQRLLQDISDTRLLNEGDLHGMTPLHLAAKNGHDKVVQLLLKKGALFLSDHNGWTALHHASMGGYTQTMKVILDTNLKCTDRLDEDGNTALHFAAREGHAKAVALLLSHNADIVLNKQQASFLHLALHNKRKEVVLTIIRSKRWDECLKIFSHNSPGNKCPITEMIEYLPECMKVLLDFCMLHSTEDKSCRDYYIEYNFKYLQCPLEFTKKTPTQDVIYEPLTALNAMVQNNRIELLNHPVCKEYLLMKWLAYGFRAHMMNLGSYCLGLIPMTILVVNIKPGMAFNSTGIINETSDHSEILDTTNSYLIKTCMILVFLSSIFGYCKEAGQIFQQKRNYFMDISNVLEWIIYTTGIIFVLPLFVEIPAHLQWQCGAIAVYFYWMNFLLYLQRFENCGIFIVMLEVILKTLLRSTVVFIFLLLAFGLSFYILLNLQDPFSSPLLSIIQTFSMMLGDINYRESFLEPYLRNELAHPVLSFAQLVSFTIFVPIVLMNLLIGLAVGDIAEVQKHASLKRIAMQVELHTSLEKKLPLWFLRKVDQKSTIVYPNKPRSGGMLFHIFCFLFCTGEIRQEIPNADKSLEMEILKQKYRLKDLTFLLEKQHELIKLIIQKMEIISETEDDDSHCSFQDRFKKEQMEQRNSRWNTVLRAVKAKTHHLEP
T3 sequence (Q8BLA8 whole entry): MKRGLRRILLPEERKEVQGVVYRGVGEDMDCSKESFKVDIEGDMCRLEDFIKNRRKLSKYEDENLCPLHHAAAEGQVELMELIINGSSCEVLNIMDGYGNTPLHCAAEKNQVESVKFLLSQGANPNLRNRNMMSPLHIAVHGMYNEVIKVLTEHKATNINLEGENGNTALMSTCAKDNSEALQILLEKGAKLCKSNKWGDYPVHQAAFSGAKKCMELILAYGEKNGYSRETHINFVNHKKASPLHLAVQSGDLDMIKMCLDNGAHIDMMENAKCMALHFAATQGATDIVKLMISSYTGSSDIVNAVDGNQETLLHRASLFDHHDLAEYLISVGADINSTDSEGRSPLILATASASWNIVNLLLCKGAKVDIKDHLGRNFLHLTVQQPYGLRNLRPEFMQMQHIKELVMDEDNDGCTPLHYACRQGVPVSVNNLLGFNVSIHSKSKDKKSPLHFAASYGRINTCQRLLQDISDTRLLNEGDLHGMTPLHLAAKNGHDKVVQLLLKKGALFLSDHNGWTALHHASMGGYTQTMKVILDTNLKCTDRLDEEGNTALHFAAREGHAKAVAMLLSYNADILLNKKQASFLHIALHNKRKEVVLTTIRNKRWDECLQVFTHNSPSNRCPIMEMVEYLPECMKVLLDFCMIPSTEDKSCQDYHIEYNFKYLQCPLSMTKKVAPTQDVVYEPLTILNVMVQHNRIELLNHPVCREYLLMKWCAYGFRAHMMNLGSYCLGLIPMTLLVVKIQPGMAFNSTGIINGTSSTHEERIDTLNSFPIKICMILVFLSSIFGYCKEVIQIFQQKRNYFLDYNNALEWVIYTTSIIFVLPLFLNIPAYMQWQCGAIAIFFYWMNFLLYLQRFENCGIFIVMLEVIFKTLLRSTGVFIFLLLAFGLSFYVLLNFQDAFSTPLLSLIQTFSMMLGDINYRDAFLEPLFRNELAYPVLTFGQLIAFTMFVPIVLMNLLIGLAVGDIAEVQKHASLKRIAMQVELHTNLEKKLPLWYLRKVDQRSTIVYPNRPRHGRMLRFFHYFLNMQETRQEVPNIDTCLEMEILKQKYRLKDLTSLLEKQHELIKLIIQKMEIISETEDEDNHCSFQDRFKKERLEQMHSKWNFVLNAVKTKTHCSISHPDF
Chain of Transient receptor potential cation channel subfamily V member 4 (Q9HBA0 whole entry): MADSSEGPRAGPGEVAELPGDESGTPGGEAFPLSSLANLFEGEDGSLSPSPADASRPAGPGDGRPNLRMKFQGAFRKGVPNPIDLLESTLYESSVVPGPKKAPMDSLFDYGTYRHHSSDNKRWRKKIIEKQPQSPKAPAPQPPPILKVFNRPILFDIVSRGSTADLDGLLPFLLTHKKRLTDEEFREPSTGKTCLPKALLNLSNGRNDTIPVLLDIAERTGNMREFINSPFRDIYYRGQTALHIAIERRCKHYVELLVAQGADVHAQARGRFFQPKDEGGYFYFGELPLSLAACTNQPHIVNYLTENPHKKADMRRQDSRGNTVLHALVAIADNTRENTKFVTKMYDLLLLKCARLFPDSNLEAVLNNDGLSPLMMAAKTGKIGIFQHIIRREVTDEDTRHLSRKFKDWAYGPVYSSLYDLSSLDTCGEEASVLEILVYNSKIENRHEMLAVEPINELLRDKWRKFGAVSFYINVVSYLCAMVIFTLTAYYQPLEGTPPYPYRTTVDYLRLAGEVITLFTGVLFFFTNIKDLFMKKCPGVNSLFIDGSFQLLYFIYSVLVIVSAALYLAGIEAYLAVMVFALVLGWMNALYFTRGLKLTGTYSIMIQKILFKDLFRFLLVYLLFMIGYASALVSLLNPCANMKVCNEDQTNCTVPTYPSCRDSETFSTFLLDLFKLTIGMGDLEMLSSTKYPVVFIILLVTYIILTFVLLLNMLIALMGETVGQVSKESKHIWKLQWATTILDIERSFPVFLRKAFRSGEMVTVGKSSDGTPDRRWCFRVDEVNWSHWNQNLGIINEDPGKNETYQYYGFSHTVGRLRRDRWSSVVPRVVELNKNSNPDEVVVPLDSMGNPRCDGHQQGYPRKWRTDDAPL
Chain of Transient receptor potential cation channel subfamily V member 1 (Q8NER1 whole entry): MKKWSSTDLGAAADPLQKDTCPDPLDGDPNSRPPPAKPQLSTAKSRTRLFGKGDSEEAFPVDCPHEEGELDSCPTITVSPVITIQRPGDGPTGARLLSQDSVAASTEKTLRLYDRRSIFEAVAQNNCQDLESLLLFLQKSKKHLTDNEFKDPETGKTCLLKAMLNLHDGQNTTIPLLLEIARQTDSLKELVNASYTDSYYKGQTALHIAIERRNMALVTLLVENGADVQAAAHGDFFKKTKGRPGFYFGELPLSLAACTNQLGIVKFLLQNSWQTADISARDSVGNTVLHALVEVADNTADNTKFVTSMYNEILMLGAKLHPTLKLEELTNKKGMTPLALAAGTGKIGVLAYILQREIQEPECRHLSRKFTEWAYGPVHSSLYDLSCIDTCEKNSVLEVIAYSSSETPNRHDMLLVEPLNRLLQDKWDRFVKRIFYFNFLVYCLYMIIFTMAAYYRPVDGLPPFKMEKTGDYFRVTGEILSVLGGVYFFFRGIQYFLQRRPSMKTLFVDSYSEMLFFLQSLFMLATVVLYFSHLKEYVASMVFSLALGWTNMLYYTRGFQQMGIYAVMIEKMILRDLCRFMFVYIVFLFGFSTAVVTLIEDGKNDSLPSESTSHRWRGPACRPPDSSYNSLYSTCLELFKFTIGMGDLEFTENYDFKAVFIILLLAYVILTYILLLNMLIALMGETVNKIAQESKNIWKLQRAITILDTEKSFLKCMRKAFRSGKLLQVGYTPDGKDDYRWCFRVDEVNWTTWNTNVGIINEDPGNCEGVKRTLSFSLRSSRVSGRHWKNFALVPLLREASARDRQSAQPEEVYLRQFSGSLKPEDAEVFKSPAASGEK
Chain of Transient receptor potential cation channel subfamily M member 8 (Q7Z2W7 whole entry): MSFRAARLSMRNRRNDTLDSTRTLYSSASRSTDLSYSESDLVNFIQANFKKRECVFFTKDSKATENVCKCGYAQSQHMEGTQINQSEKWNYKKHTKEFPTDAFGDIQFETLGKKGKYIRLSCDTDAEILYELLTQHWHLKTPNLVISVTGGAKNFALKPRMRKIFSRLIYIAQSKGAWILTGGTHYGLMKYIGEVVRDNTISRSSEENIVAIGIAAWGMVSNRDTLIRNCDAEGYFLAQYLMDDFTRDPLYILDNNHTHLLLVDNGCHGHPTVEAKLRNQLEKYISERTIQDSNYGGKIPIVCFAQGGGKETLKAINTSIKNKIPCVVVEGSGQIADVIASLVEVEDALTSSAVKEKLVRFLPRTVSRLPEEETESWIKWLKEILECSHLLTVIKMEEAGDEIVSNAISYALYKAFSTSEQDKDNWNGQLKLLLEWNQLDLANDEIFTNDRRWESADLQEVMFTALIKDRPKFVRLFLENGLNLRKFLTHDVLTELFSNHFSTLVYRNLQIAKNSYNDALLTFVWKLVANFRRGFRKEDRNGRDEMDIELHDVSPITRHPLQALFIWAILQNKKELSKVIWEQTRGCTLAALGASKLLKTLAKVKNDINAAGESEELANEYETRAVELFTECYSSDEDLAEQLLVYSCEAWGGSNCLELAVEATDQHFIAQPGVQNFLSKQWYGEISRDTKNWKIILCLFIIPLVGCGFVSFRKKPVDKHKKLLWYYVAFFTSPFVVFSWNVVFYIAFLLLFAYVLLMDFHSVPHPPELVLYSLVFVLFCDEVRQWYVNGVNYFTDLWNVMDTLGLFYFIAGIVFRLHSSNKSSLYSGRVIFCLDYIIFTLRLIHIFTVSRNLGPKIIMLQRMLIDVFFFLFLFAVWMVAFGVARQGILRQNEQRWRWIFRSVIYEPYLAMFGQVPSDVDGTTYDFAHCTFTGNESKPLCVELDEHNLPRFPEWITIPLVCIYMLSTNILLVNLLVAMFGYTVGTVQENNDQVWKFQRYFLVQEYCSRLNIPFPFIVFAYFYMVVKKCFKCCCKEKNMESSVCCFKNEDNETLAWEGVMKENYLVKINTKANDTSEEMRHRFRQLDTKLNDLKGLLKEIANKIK

In the case of `CC(C)c1ccc(NC(=O)Cn2cnc3c2c(=O)n(C)c(=O)n3C)cc1`, the IC50 [1] is reported as over 30 µM, the IC50 [2] is reported as over 10 µM and the IC50 [3] is reported as over 10 µM. The IC50 [4] was over 20 µM, the IC50 [5] was 1800 nM and the EC50 [6] was 1 mM. It also gave an IC50 [7] of 6.2 µM, an IC50 [8] of 5.3 µM and an IC50 [9] of 4.9 µM. It also gave an IC50 [10] of 7.5 µM.
`CCC(C)c1ccc(NC(=O)Cn2cnc3c2c(=O)n(C)c(=O)n3C)cc1` (stereo not given) showed an EC50 [6] of 2.5 mM, an IC50 [7] of 14.3 µM and an IC50 [11] of 18.7 µM.
For `CC(=C\c1ccc(Cl)cc1)/C(C)=N/O` [AP18 5], the IC50 [12] was 4.5 µM and the IC50 [13] was 3.1 µM.
